According to the CheMixHub viscosity set:

Assay: xn = mol fraction of the nth substance listed
Conditions: 100 kPa

CS(=O)(=O)O + O
viscosity [mPa·s]
Conditions	293.15 K	298.15 K	303.15 K	308.15 K	313.15 K	318.15 K
x1 = 0.003409	1.037	0.9229	0.827	0.7471	–	–
x1 = 0.004307	1.042	0.9279	0.833	–	–	–
x1 = 0.005194	1.051	0.9391	0.8431	–	–	–
x1 = 0.006086	1.064	0.9475	0.8496	–	–	–
x1 = 0.006979	1.073	0.9565	0.8598	–	–	–
x1 = 0.007862	1.08	0.964	0.866	–	–	–
x1 = 0.008752	1.088	0.972	0.873	–	–	–
x1 = 0.0177	1.173	1.048	0.9423	0.8535	0.7777	0.713
x1 = 0.02629	1.264	1.131	1.02	0.9254	0.8437	0.7737
x1 = 0.03475	1.351	1.211	1.094	0.9939	0.9081	0.834
x1 = 0.04308	1.441	1.293	1.169	1.064	0.9738	0.8939
x1 = 0.05122	1.523	1.368	1.237	1.126	1.031	0.948
x1 = 0.05919	1.609	1.448	1.311	1.193	1.094	1.007
x1 = 0.06721	1.728	1.556	1.41	1.285	1.176	1.083
x1 = 0.07493	1.826	1.647	1.493	1.361	1.247	1.148
x1 = 0.08256	1.934	1.745	1.583	1.444	1.323	1.218
x1 = 0.09015	2.046	1.847	1.676	1.529	1.402	1.291
x1 = 0.09748	2.16	1.95	1.769	1.615	1.48	1.363
x1 = 0.1048	2.299	2.076	1.885	1.719	1.576	1.452
x1 = 0.112	2.411	2.177	1.977	1.803	1.652	1.519
